Here are results for 31 compounds from US8455665B2, “3-phenoxymethylpyrrolidine compounds” (Theravance, Inc., priority 2009, dated 2013).

The target in one test is SERT (Homo sapiens, UniProt P31645). In words: fluorescence-based serotonin uptake assay (Tsuruda et al. 2010). In kind it is cell-based. Particulars: serotonin reuptake inhibition, fluorescence-based assay (data indicated by an asterisk); for IC50: read-out: SERT pIC50 (converted).
The next test addresses NET (Homo sapiens, UniProt P23975). The test can be described thus: fluorescence-based norepinephrine uptake assay (Tsuruda et al. 2010). In kind it is cell-based. Particulars: norepinephrine reuptake inhibition, fluorescence-based assay (data indicated by an asterisk); for IC50: read-out: NET pIC50 (converted).

Marks after values point to notes of the source that are not given here.

Sequence of NET (P23975 whole entry): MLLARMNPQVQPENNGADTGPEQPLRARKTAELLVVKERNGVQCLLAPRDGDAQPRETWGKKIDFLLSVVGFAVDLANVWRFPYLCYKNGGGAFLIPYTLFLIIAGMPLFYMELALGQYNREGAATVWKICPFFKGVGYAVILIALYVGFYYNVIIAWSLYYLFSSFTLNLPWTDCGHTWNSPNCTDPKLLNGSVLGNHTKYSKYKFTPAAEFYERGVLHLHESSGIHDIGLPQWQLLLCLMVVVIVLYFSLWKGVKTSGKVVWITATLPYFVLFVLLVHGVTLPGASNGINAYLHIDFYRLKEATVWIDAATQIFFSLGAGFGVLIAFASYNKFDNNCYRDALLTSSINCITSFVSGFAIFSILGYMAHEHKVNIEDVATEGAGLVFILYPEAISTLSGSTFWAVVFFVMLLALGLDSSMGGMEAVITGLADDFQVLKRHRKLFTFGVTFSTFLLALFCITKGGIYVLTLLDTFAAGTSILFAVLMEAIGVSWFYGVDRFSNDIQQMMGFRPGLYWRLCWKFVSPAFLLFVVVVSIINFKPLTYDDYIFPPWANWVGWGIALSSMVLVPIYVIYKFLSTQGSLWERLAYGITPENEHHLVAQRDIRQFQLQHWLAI
Sequence of SERT (P31645 whole entry, species assumed): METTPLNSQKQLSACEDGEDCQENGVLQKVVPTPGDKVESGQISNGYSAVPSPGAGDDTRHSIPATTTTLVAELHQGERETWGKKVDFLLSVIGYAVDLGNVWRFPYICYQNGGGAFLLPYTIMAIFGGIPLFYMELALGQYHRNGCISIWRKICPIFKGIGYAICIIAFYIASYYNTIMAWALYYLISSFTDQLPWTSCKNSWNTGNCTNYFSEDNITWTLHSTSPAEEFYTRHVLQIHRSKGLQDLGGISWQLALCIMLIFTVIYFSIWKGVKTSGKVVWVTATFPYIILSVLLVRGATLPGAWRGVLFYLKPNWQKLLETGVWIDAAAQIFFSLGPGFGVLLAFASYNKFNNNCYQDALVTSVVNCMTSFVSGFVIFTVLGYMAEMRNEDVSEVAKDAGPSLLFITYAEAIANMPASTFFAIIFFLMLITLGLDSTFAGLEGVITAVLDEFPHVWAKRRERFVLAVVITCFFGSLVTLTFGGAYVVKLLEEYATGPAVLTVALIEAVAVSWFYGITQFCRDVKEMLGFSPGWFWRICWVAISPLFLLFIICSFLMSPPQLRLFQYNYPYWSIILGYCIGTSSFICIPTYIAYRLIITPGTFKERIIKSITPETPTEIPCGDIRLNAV

For `CCOC[C@H](Oc1c(Cl)cc(F)cc1Cl)[C@H]1CCNC1` [Example 7-31, (S)-3-[(R)-1-(2,6-Dichloro-4-fluorophenoxy)-2-ethoxyethyl]pyrrolidine], the IC50 on SERT is at most 100 nM; on NET, at most 10 nM.

Consider `CSC[C@@H](Oc1ccc(F)c(F)c1F)[C@H]1CCNC1.O=C(O)C(F)(F)F` [Example 15-14], for which the “SERT pIC50” value at SERT is given as “≧7.0*”. Also, the “NET pIC50” value at NET was “≧8.0*”.

Consider `CCOC[C@H](Oc1ccccc1Cl)[C@H]1CCNC1` [Example 7-1, (S)-3-[(R)-1-(2-Chlorophenoxy)-2-ethoxyethyl]pyrrolidine], for which the IC50 was at most 100 nM at SERT and at most 10 nM on NET.

On to `CC(C)SC[C@@H](Oc1ccc(Cl)cc1Cl)[C@H]1CCNC1` [Example 19-5, (S)-3-[(S)-1-(2,4-Dichlorophenoxy)-2-isopropylsulfanylethyl]pyrrolidine], for which the IC50 on SERT was at most 10 nM; at NET, at most 100 nM.

`Cc1cc(Cl)ccc1O[C@@H](COCc1ccccc1)[C@H]1CCNC1.O=C(O)C(F)(F)F` [Prep 3]: at SERT, the “SERT pIC50” value was “≧8.0*”. For the same compound, at NET, the “NET pIC50” value is reported as “≧8.0*”.

As for `CC(C)SC[C@H](Oc1cccc(Cl)c1Cl)[C@H]1CCNC1` [Example 19-1, (S)-3-[(R)-1-(2,3-Dichlorophenoxy)-2-isopropylsulfanylethyl]pyrrolidine], the IC50 at SERT and on NET was at most 10 nM in each case.

With `CCOC[C@@H](Oc1cccc(C(F)(F)F)c1)[C@H]1CCNC1` [Example 7-3, (S)-3-[(S)-2-Ethoxy-1-(3-trifluoromethylphenoxy)ethyl]pyrrolidine], the IC50 on SERT and on NET was at most 100 nM throughout.

`Clc1ccccc1O[C@@H](COCc1ccccc1)[C@H]1CCNC1` [Example 10-1]: at SERT, the “SERT pIC50” value is reported as “≧7.0*”. Besides, the “NET pIC50” value on NET was “≧8.0*”.

As to `CC(C)OC[C@H](Oc1c(Cl)cccc1Cl)[C@H]1CCNC1` [Example 9-29, (S)-3-[(R)-1-(2,6-Dichlorophenoxy)-2-isopropoxyethyl]pyrrolidine], the IC50 at SERT is at most 100 nM; at NET it was at most 10 nM.

For the compound `Clc1cccc(OC(COCc2ccccc2)C2CCNC2)c1Cl` [Example 10-2, ((S)-3-[(R)-2-Benzyloxy-1-(2,3-dichlorophenoxy)ethyl]pyrrolidine], the IC50 at SERT and on NET was at most 10 nM each time.

For the compound `CC(C)SC[C@H](Oc1cccc(Cl)c1C(F)(F)F)[C@H]1CCNC1` [Example 18, (S)-3-[(R)-1-(3-Chloro-2-trifluoromethylphenoxy)-2-isopropylsulfanylethyl]pyrrolidine], the IC50 on SERT and at NET was at most 10 nM each time.

For the compound `CCOC[C@H](Oc1cccc(F)c1F)[C@H]1CCNC1` [Example 7-11, (S)-3-[(R)-1-(2,3-Difluorophenoxy)-2-ethoxyethyl]pyrrolidine], the IC50 at SERT is at most 100 nM; at NET, at most 10 nM.

For the compound `CCOC[C@H](Oc1cccc(Cl)c1Cl)[C@H]1CCNC1` [Example 7-7, (S)-3-[(R)-1-(2,3-Dichlorophenoxy)-2-ethoxyethyl]pyrrolidine], the IC50 at SERT and on NET was at most 10 nM in each case.

Consider `CCOC[C@H](Oc1cccc(C(F)(F)F)c1)[C@H]1CCNC1` [Example 7-2, (S)-3-[(R)-2-Ethoxy-1-(3-trifluoromethylphenoxy)ethyl]pyrrolidine], for which the IC50 at SERT and on NET was at most 100 nM in each case.

Regarding `CCSC[C@@H](Oc1ccc(Cl)cc1Cl)[C@H]1CCNC1.O=C(O)C(F)(F)F` [Example 17-8], the “SERT pIC50” value at SERT was “≧8.0*”. For the same compound, the “NET pIC50” value at NET is given as “≧8.0*”.

`CCOC[C@@H](Oc1cccc(Cl)c1C)[C@H]1CCNC1` [Example 7-14, (S)-3-[(S)-1-(3-Chloro-2-methylphenoxy)-2-ethoxyethyl]pyrrolidine]: the IC50 on SERT and at NET was at most 10 nM in each case.

In the case of `CSC[C@H](Oc1cccc(Cl)c1Cl)[C@H]1CCNC1.O=C(O)C(F)(F)F` [Example 15-1], on SERT, the “SERT pIC50” value was “≧8.0*”. For the same compound, at NET, the “NET pIC50” value was “≧8.0*”.

Regarding `CCOC[C@@H](Oc1cccc(Cl)c1C(F)(F)F)[C@H]1CCNC1` [Example 7-16, (S)-3-[(S)-1-(3-Chloro-2-trifluoromethylphenoxy)-2-ethoxyethyl]pyrrolidine], the values for the IC50 at SERT and on NET were at most 10 nM and at most 100 nM, respectively.

Regarding `CCOC[C@H](Oc1cccc(Cl)c1C)[C@H]1CCNC1` [Example 7-13, (S)-3-[(R)-1-(3-Chloro-2-methylphenoxy)-2-ethoxyethyl]pyrrolidine], the IC50 on SERT and on NET was at most 10 nM in each case.

Take `CSC[C@@H](Oc1cccc(Cl)c1Cl)[C@H]1CCNC1.O=C(O)C(F)(F)F` [Example 15-2]: the “SERT pIC50” value on SERT is recorded as “≧8.0*”. Moreover, the “NET pIC50” value at NET is listed as “≧8.0*”.

Consider `CCOC[C@H](Oc1ccc(Cl)c(Cl)c1)[C@H]1CCNC1` [Example 7-24, (S)-3-[(R)-1-(3,4-Dichlorophenoxy)-2-ethoxyethyl]pyrrolidine], for which the IC50 at SERT was at most 10 nM; on NET, at most 100 nM.

Regarding `CCOC[C@H](Oc1c(F)ccc(F)c1Cl)[C@H]1CCNC1` [Example 7-30, (S)-3-[(R)-1-(2-Chloro-3,6-difluorophenoxy)-2-ethoxyethyl]pyrrolidine], the IC50 at SERT was at most 100 nM; on NET, at most 10 nM.

Regarding `CCSC[C@H](Oc1ccc(Cl)cc1C(F)(F)F)[C@H]1CCNC1.O=C(O)C(F)(F)F` [Example 17-13], the “SERT pIC50” value at SERT was “≧8.0*”. Besides, the “NET pIC50” value at NET was “≧8.0*”.

Consider `CSC[C@@H](Oc1cccc(Cl)c1C)[C@H]1CCNC1.O=C(O)C(F)(F)F` [Example 15-6], for which, at SERT, the “SERT pIC50” value is “≧8.0*”. Besides, the “NET pIC50” value at NET is reported as “≧8.0*”.

`CSC[C@H](Oc1cccc(C(F)(F)F)c1)[C@H]1CCNC1.O=C(O)C(F)(F)F` [Example 15-9]: on SERT, the “SERT pIC50” value was “≧7.0*”. The “NET pIC50” value on NET is listed as “≧7.0*”.

For the compound `CC(C)OC[C@H](Oc1ccc(Cl)cc1Cl)[C@H]1CCNC1` [Example 8, (S)-3-[(R)-1-(2,4-Dichlorophenoxy)-2-isopropoxyethyl]pyrrolidine], the IC50 on SERT and at NET was at most 10 nM in each case.

For the compound `CC(C)OC[C@@H](Oc1cccc(Cl)c1Cl)[C@H]1CCNC1` [Example 9-8, (S)-3-[(S)-1-(2,3-Dichlorophenoxy)-2-isopropoxyethyl]pyrrolidine], the IC50 on SERT and on NET was at most 10 nM in each case.

As for `CCSC[C@@H](Oc1cccc(F)c1Cl)[C@H]1CCNC1.O=C(O)C(F)(F)F` [Example 17-4], on SERT, the “SERT pIC50” value is listed as “≧8.0*”. The “NET pIC50” value at NET was “≧8.0*”.

As to `CCSC[C@H](Oc1ccc(Cl)c(Cl)c1)[C@H]1CCNC1.O=C(O)C(F)(F)F` [Example 17-9], the “SERT pIC50” value at SERT is “≧8.0*”. Moreover, the “NET pIC50” value at NET is reported as “≧8.0*”.

For `CSC[C@@H](Oc1ccc(Cl)cc1Cl)[C@H]1CCNC1.O=C(O)C(F)(F)F` [Example 15-12], at SERT, the “SERT pIC50” value is “≧8.0*”. Also, the “NET pIC50” value on NET is given as “≧7.0*”.

`CC(C)SC[C@H](Oc1cccc(F)c1Cl)[C@H]1CCNC1` [Example 19-3, (S)-3-[(R)-1-(2-Chloro-3-fluorophenoxy)-2-isopropylsulfanylethyl]pyrrolidine]: the IC50 on SERT and on NET was at most 10 nM each time.
